These results are taken from patent US10287259B2, “Selenazolidine and thiazolidine compounds for treating cancer and other diseases” (The Penn State Research Foundation, priority 2016, dated 2019).

Holding throughout (assay type): cell-based
The subject of assay [1] is Panc-1 cells. The assay can be described thus: MTT cell viability assay, Panc-1. The method, then: (§1) MTT (3-(4,5-dimethylthiazol-2-yl)-2,5-diphenyltetrazolium) assay was performed to determine the effect of AS-10 on cancer cell viability (Plano et al., 2016, J. Med. Chem. 1946-1959; Alcolea et al., 2012, Eur. J. Med. Chem. 113:134-144; Kumar et al., 2014, Eur. J. Med. Chem. 81:267-276). Briefly, 3×10^3 cells were treated with different concentrations of AS-10 in triplicate in a 96-well plate for different time points. MTT solution (20 μL of 5.0 mg/mL solution) was added to each well, three hours prior to termination time point and incubated at 37° C. Resultant formazan crystals, at termination time point, were dissolved in 50 μL DMSO. The plate was subjected to a 96-well multiscanner (Dynex Technologies, MRX Revelation; Chantilly, Va., USA) for measuring the optical densities at 570 nm and 630 nm. IC50 values were determined by performing non-linear regression using Graphpad Prism software.
To test the anti-cancer activity of AS-10 in pancreatic cancer (PC) cell lines, a MTT assay was performed. PC cell lines, Panc-1 and BxPC3, were treated with AS-10 at different doses at different time points (24, 48, and 72 h). Resulting cells were subjected to MTT cell viability assay. […] Panc-1 cells were treated with different doses of AS-10 for 48 h. After 48 h, live cells were counted and plated in a new petri dish. Cells were allowed to form colonies for 17 days. At the end of 17 days the colonies were counted and compared to the untreated cells.

The next assay relates to Lung cancer cells (A549). The assay can be described thus: MTT cell viability assay, A549. The following applies: A549, 48 h (FIG. 5C); acetate functionality removed. The method, then: as §1
On the technique in general: Tetrazolium dyes change colour on reduction, which living cells bring about.

For another assay, the system named is pancreatic cancer cells. The assay can be described thus: MTT cell viability assay, pancreatic cancer (PC) cells. The following applies: screening. The method, then:
as §1

In a further assay the test system is LNCaP cells. The assay can be described thus: MTT cell viability test, LNCaP. As to the method: as §1
The subject of assay [2] is Panc-1 cells. The assay can be described thus: Live/dead assay with calcein-AM and ethidium bromide. The following applies: Panc-1, 48 h; AS-10 2.5 μM, gemcitabine 50 μM. The method, then: To determine the dead cell population, we used LIVE/DEAD Viability/Cytotoxicity Kit (L3224, Life technologies, USA). Panc-1 cells were treated with either DMSO, gemcitabine (50 μM), or AS-10 (2.5 μM) or in combination for 48 h. Live and dead cells were determined by subjecting treated cells to LIVE/DEAD Viability/Cytotoxicity Kit (Plano et al., 2016, J. Med. Chem. 1946-1959). […] While ethidium homodimer-1 can only enter cells who have lost their plasma membrane integrity or dead cells and fluorescents red. Stained cells were visualized using a fluorescence microscope (Zeiss—Axio Scope.A1) with a 20× objective lens. Percentage values of live and dead cells were calculated.

Assay [3] concerns Panc-1 cells. The assay can be described thus: Western blot analysis of Panc-1 lysates. The conditions noted are these: Panc-1, 48 h; low dose AS-10 2.5 μM, gemcitabine 50 μM. The method, then:
Whole-cell lysates were made by subjecting AS-10 treated Panc-1 cells to RIPA lysis buffer (Thermo Scientific, USA) containing protease (Roche, USA) and phosphatase inhibitor cocktails (Sigma-Aldrich, USA) (Plano et al., 2016, J. Med. Chem. 1946-1959). Lysates were spun at 15,000 rpm for 10 minutes. Resulting supernatant was stored at −80° C. until use. NuPAGE gel 4-12% (Life Technologies, Carlsbad, Calif.) was used to resolve the lysates, followed by electro-transfer to PVDF membrane. After the transfer membrane was blocked with 5% non-fat milk and probed with different antibodies. Protein of interest were detected by using enhanced Chemiluminescent reagent (Life technologies, USA). Blots were stripped using Restore Western blot stripping buffer (Thermo Scientific, USA) to save time and samples.
For orientation: Immunoblotting shows a protein as a band on a membrane.

The subject of assay [4] is Panc-1 cells. Briefly: Muse Live/dead Annexin V assay. The conditions noted are these: Panc-1, 48 h; AS-10 2.5 μM, gemcitabine 50 μM. The method, then:
Muse Annexin V & Dead Cell kit was used to determine the apoptosis cells in AS-10 treated Panc-1 cells (Plano et al., 2016, J. Med. Chem. 1946-1959). The Muse Annexin V & Dead cell assay contains Annexin V to detect phosphatidylserine (PS) on the outer surface of cells. The kit also contains a dead cell marker, 7-amino-actinomycin D (7-AAD). […] In brief, Panc-1 (1.5×10^5) cells were treated with a given dose of AS-10 or DMSO for appropriate time (0, 6, 12, 24, 36, or 48 h). Both floating cells as well as adherent cells were collected and subjected for Annexin V staining using Muse Annexin V & Dead Cell kit with Muse cell analyzer (EMD Millipore, Billerica, Mass., USA). The obtained data were analyzed using Muse 1.4 software.

Regarding `CC(=O)Oc1ccccc1C(=O)/N=C1\SCCN1C(=O)c1ccccc1OC(C)=O` [ASD-123, 2-((3-(2-acetoxybenzoyl)-1,3-thiazolidin-2-ylidene)carbamoyl)phenyl acetate], the “potency compared to AS-10” value in the assay with Panc-1 cells [1] (Panc-1, 48 h (FIG. 5B), Se replaced by S) is “significant loss in the potency”.

On to `O=C(/N=C1\[Se]CCN1C(=O)c1ccccc1)c1ccccc1` [ASD-171, N-(3-benzoyl-1,3-selenazolidin-2-ylidene)benzamide], for which the “potency compared to AS-10” value with Lung cancer cells (A549) is “significant loss in the potency”.

For the compound `CC(=O)Oc1ccccc1C(=O)O` [aspirin, reference compound], the “effect on PC cell lines at doses similar to AS-10” value in the assay with pancreatic cancer cells is on record as “did not have any effects”. For the same compound, the “EC50 range, growth inhibition (comparison)” value in the assay with LNCaP cells was “millimolar range”.

In the case of `Nc1ccn([C@@H]2O[C@H](CO)[C@@H](O)C2(F)F)c(=O)n1` [gemcitabine, reference compound], the dead cells with Panc-1 cells [2] is on record as approximately 10%. Also, the PARP cleavage entry with Panc-1 cells [3] is recorded as “no effect on PARP cleavage”. Also, in the assay with Panc-1 cells [1] (highest tested dose 500 μM, 48 h), the “response of Panc-1 cells to treatment” value was “resistant”. In addition, the total apoptotic cells in the assay on Panc-1 cells [4] is listed as approximately 25%.
